Test results: patent publication US6925388B1, “Heterocyclic nonnucleoside inhibitors of reverse transcriptase” (Parker Hughes Institute, priority 1998, dated 2005)
Read-outs that look alike come from different tables or passages of the source.

Experiments:
[1] = biological target: recombinant HIV-1 reverse transcriptase (rRT) (Human immunodeficiency virus type 1 group M subtype B, UniProt P04585); assay: Quan-T-RT cell-free assay of recombinant HIV-1 reverse transcriptase activity; assay type: biochemical
Protocol: In addition, the activity of the test compounds to inhibit recombinant HIV-1 reverse transcriptase (rRT) activity was determined using the Quan-T-RT assay system (Amersham, Arlington Heights, Ill.), which utilizes the scintillation proximity assay principle. […] Data for both bioassays is reported as IC50 values.

[2] = test system: non-infected PBMNC; assay: Microculture Tetrazolium Assay (MTA) of cell viability; assay type: cell-based, human; settings: for IC50: Table 7, concentration decreasing cellular proliferation by 50%
Protocol: (§1) Ag. […] In brief, non-infected PBMNC were treated with test compounds or controls for 7 days under identical experimental conditions and 2,3-bis(2-methoxy-4-nitro-5-sulfophenyl)-5-[(phenylamino)-carbonyl]-2H-tetrazolium hydroxide ([…]), was added to quantitative cellular proliferation.

[3] = test system: HIV-1 strain HTLVIIIB; assay: p24 enzyme immunoassay of HIV replication in HTLVIIIB-infected peripheral blood mononuclear cells; assay type: cell-based
Protocol: The HIV-1 strain HTLVIIIB (kindly provided by Dr. Neal T. Wetherall, VIROMED Laboratories, Inc.), was propagated in CCRF-CEM cells, and used in in vitro assays of the anti-HIV-1 activity of the synthesized novel derivatives. Cell-free supernatants of HTLVIIIB-infected CCRF-CEM cells were harvested, dispensed into 1 ml aliquots, and frozen at −70° C.
The incubated cells were then exposed to HIV-1 at a multiplicity of infection (MOI) of 0.1 during a one-hour adsorption period at 37° C. in a humidified 5% CO2 atmosphere. […] Aliquots of culture supernatants were removed from the wells on the 7th day after infection for p24 antigen assays. […] Ag.
The applied p24 enzyme immunoassay (EIA) was the unmodified kinetic assay commercially available from Coulter Corporation/Immunotech, Inc. (Westbrooke, Me.). In the assay, a murine monoclonal antibody against HIV core protein is coated onto microwell strips. Antigen (HIV core protein) present in the test culture supernatant samples binds the antibody and the bound antibody-antigen complex is quantitated. Percent viral inhibition was calculated by comparing the p24 values from the test substance-treated infected cells with p24 values from untreated infected cells (i.e., virus controls).

[4] = Microculture Tetrazolium Assay (MTA) of cell viability; assay type: cell-based, human; settings: human; for CC50 at 7 days: non-infected PBMNC, Table 4
Protocol: as §1

[5] = Table 4, DABO compounds, purified recombinant HIV RT, read-out: IC50 [rRT]
[6] = Table 6, recombinant HIV reverse transcriptase assay, read-out: IC50 rRT
[7] = Table 7, HIV-infected peripheral blood mononuclear cells, read-out: IC50 [p24]
[8] = Human immunodeficiency virus 1, PBMC, read-out: IC50 [p24]
[9] = Table 5, HIV-infected PBMNC, read-out: IC50 p24
[10] = Human immunodeficiency virus 1, PBMC, Table 6, read-out: IC50 p24
[11] = Human immunodeficiency virus 1, PBMC, HIV-infected human peripheral blood mononuclear cells, read-out: IC50 for inhibition of HIV replication (p24 production)

Cc1cn([C@H]2C[C@H](N=[N+]=[N-])[C@@H](CO)O2)c(=O)[nH]c1=O [AZT, reference compound] gave an IC50 [1, 5] of over 100000 nM, an IC50 [1, 6] of over 100000 nM and a CC50 ([2]; Table 4) of 50000 nM. It also gave an IC50 [2] of 50000 nM, an IC50 ([3]; 3 of 3 independent experiments for I-4, read-out: IC50 anti-HIV activity (p24)) of 8 nM and an IC50 ([3]; Table 4, HTLVIIIB-infected peripheral blood mononuclear cells, read-out: IC50 [p24]) of 40 nM. The IC50 ([3]; Table 6, read-out: IC50 p24) was 4 nM and the IC50 [3, 7] was 4 nM.

Molecule CSCSc1nc(Cc2ccccc2)c(C)c(=O)[nH]1 [Compound 3a, 5-methyl-2-[(methylthiomethyl)thio]-6-benzyl-pyrimidin-4-1H-one] has an IC50 [1, 5] of 18800 nM, a CC50 at 7 days [4] of over 100000 nM and an IC50 [3, 8] of 4500 nM.

Work on CCc1c(Cc2ccccc2)nc(SCSC)[nH]c1=O [Compound 3b, 5-ethyl-2-[(methylthiomethyl)thio]-6-benzyl-pyrimidin-4-1H-one] yielded an IC50 [1, 5] of 9700 nM, a CC50 at 7 days [4] of over 100000 nM and an IC50 [3, 8] of 800 nM.

For CSCSc1nc(Cc2ccccc2)c(C(C)C)c(=O)[nH]1 [Compound 3c, 5-isopropyl-2-[(methylthiomethyl)thio]-benzyl-pyrimidin-4-1H-one], the CC50 at 7 days [4] was over 100000 nM, the “inhibition of cellular proliferation as measured by MTA” value ([2]; no detectable cytotoxicity) was over 100 µM and the “selectivity index (IC50[MTA]/IC50[p24])” value [3] was > 100,000. For the same molecule, the “fold more active than AZT and MKC-442” value ([3]; HIV replication) was “more than 4 fold”, the IC50 [3, 8] was under 1 nM and the IC50 ([3]; Human immunodeficiency virus 1, PBMC, read-out: IC50 for inhibition of HIV replication (p24 production)) was under 1 nM.

With CSCSc1nc(Cc2cc(C)cc(C)c2)c(C(C)C)c(=O)[nH]1 [Compound 3d, 5-isopropyl-2-[(methylthiomethyl)thio]-6-(3,5-dimethylbenzyl)-pyrimidin-4-1H-one] the IC50 [1, 5] was 4800 nM.

S=C(NCCc1ccccn1)Nc1ccccn1 [Compound I-1, N-[2-(2-pyridylethyl)]-N′-[2-(pyridyl)]-thiourea] gave an IC50 [3, 9] of 230 nM.

S=C(NCCN1CCCCC1)Nc1ccc(Br)cn1 [Compound I-3, N-[2-(1-piperidinoethyl)]-N′-[2-(5-bromopyridyl)]-thiourea] gave an IC50 [3, 9] of under 1 nM.

In the case of COc1ccc(OC)c(CCNC(=S)Nc2ccc(Br)cn2)c1 [Compound I-4, N-[2-(2,5-dimethoxyphenylethyl)]-N′-[2-(5-bromopyridyl)]-thiourea], the “times more potent than trovirdine against recombinant HIV RT” value [1] is reported as 8, the IC50 ([3]; Human immunodeficiency virus 1, PBMC, 3 of 3 independent experiments for I-4, read-out: IC50 anti-HIV activity (p24)) is reported as under 1 nM and the IC50 ([3]; Human immunodeficiency virus 1, PBMC, Table 5, HIV-infected PBMNC, read-out: IC50 p24) is reported as under 1 nM. For the same molecule, the melting point was 133 to 138 °C.

COc1ccccc1CCNC(=S)Nc1ccc(Br)cn1 [II-1, N-[2-(2-methoxyphenethyl)]-N′-[2-(5-bromopyridyl)]-thiourea] gave an IC50 [1] of 1000 nM, an IC50 [3, 10] of 10 nM and a melting point of 143 to 145 °C.

With Fc1ccccc1CCNC(=S)Nc1ccc(Br)cn1 [II-2, N-[2-(2-fluorophenethyl)]-N′-[2-(5-bromopyridyl)]-thiourea] the IC50 [1] was 600 nM, the IC50 [3, 11] was under 1 nM and the IC50 [3, 10] was under 1 nM. For the same molecule, the melting point was 156 to 157 °C.

S=C(NCCc1ccccc1Cl)Nc1ccc(Br)cn1 [II-3, N-[2-(2-chlorophenethyl)]-N′-[2-(5-bromopyridyl)]-thiourea] showed an IC50 [1] of 700 nM, an IC50 [3, 11] of under 1 nM and an IC50 [3, 10] of under 1 nM. It also gave a melting point of 137 to 139 °C.

In the case of COc1cccc(CCNC(=S)Nc2ccc(Br)cn2)c1 [II-4, N-[2-(3-metboxyphenethyl)]-N′-[2-(5-bromopyridyl)]-thiourea], the IC50 [1] is reported as 400 nM, the “times more potent than trovirdine against recombinant HIV RT” value [1] is reported as “approximately 2” and the “selectivity index (IC50[MTA]/IC50[p24])” value [3] is reported as > 3×10^4. For the same molecule, the IC50 [3, 11] was 3 nM, the IC50 [3, 10] was 3 nM and the melting point was 155 to 156 °C.

In the case of Fc1cccc(CCNC(=S)Nc2ccc(Br)cn2)c1 [II-5, N-[2-(3-fluorophenethyl)]-N′-[2-(5-bromopyridyl)]-thiourea], the IC50 [1] is reported as 700 nM, the IC50 [3, 11] is reported as under 1 nM and the IC50 [3, 10] is reported as under 1 nM. The melting point was 171 to 172 °C.

S=C(NCCc1cccc(Cl)c1)Nc1ccc(Br)cn1 [II-6, N-[2-(3-chlorophenethyl)]-N′-[2-(5-bromopyridyl)]-thiourea] showed an IC50 [1, 6] of 3100 nM and a melting point of 163 to 165 °C.

COc1ccc(CCNC(=S)Nc2ccc(Br)cn2)cc1 [II-7, N-[2-(4-methoxyphenethyl)]-N′-[2-(5-bromopyridyl)]-thiourea] showed an IC50 [3, 11] of 15 nM, an IC50 [3, 10] of 15 nM and a melting point of 178 to 179 °C.

With Fc1ccc(CCNC(=S)Nc2ccc(Br)cn2)cc1 [II-8, N-[2-(4-fluorophenethyl)]-N′-[2-(5-bromopyridyl)]-thiourea] the “fold less active than meta and ortho F compounds (IC50[rRT])” value [1] was 10 fold, the IC50 [1, 6] was 6400 nM and the melting point was 177 to 178 °C.

For S=C(NCCc1ccc(Cl)cc1)Nc1ccc(Br)cn1 [II-9, N-[2-(4-chlorophenethyl)]-N′-[2-(5-bromopyridyl)]-thiourea], the melting point was 180 to 183 °C.

Molecule S=C(NCCN1CCCCC1)Nc1ccc(Br)cn1 [III-1, N-[2-(1-piperidinylethyl)]-N′-[2-(5-bromopyridyl)]-thiourea] has an IC50 [2] of over 100000 nM and an IC50 [3, 7] of under 1 nM.

Molecule S=C(NCCN1CCNCC1)Nc1ccc(Br)cn1 [III-2, N-[2-(1-piperizinylethyl)]-N′-[2-(5-bromopyridyl)]-thiourea] has an IC50 [2] of over 100000 nM and an IC50 [3, 7] of 2 nM.

Molecule S=C(NCCN1CCOCC1)Nc1ccc(Br)cn1 [III-3, N-[2-(1-morpholinylethyl)]-N′-[2-(5-bromopyridyl)]-thiourea] has an IC50 [2] of over 100000 nM and an IC50 [3, 7] of under 1 nM.

CCOCn1c(Cc2ccccc2)c(C(C)C)c(=O)[nH]c1=O [MKC-442, reference compound] gave a CC50 at 7 days [4] of over 100000 nM.

Molecule S=C(NCCc1ccccn1)Nc1ccc(Br)cn1 [Trovirdine, reference compound] has an IC50 at 7 days ([4]; Table 7, concentration decreasing cellular proliferation by 50%) of over 100000 nM, an IC50 [3, 8] of 7 nM and an IC50 ([3]; Human immunodeficiency virus 1, PBMC, read-out: IC50 anti-HIV activity (p24)) of 7 nM. For the same molecule, the IC50 ([3]; Human immunodeficiency virus 1, PBMC, read-out: IC50 p24) was 7 nM.
